From patent publication US9468621B2, “Metal-salen complex compound responsive drug and intra-corporeal behavior control system for metal-salen complex compound” (IHI Corporation, priority 2011, dated 2016)
Read-outs that look alike come from different tables or passages of the source.

Experiments:
[1] = system: POS-1 cells (mouse osteosarcoma cells); assay: MTT cell survival assay: neutralizing cytotoxicity of the ferrous-salen complex compound; format: cell-based; conditions: 24 hours
Description: (§1) The cells were collected 24 hours later and an MTT reagent for cell survival assay was administered, 400 μL of 0.04-mol of HCl/isopropyl alcohol was added 45 minutes later, 100 μL of the obtained mixture was dispensed to 96-well plates, and absorbance at 570 nm was measured, thereby calculating cell viability.
as §1, with “and the” for “and an”

[2] = Calcein AM fluorescence (RFU) assay of chelation of the ferrous-salen complex compound by a metal chelating agent; format: biochemical; conditions: for EC50: Calcein AM, FIG. 1, read-out: EC50 (50% effective concentration of a maximum reaction value) of chelator, RFU recovery
Text: If calcein (Calcein: fluorescent indicator) is used solely, it emits light (an RFU value increases); however, if calcein binds with a ferrous-salen complex compound, light emission diminishes (the RFU value decreases). Accordingly, if deferoxamine (deferoximine: the above-mentioned structural formula (II)) exists, iron ions of the ferrous-salen complex compound are adsorbed by the deferoxamine and ferrous-salen ligands are detached from calcein. As a result, the amount of the calcein-divalent-iron-salen complex compound decreases and the light emission […]. You can tell that as an amount of emitted light […], the metal-salen complex compound combines with the metal chelating agent.
The ferrous-salen complex compound (M=Fe, R═R′═H) indicated as the aforementioned structural formula (III) was produced based on descriptions of WO 2010/058280. […] Subsequently, 15 μM deferoxamine was administered to this ferrous-salen complex compound—calcein AM complex—and measurement was performed one hour later by using a measuring device (parkinermar ARVO) (λexc=485 nm, λem=520 nm).
A 15 μM of deferoxamine and vitamin C was administered to the ferrous-salen complex compound—calcein AM complex—which was produced in Example 1 above and measurement was performed one hour later by using the measuring device (parkinermar ARVO) (λexc=485 nm, λem=520 nm). As a result, it was also confirmed that when the ferrous-salen complex compound was added to Calcein AM, the RFU (Relative Fluorescent Unit) value was low. However, it was confirmed that when the chelator (deferoxamine and vitamin C) continued to be added, the RFU value increased.

SMILES: O=C(O)c1ccc(-n2nc(-c3ccccc3O)nc2-c2ccccc2O)cc1 [deferasirox, 4-[3,5-Bis(2-hydroxyphenyl)-1,2,4-triazol-1-yl]benzoic acid]
- cell viability as chelator concentration increased (neutralization of toxicity) ([1]; 7.5 μM ferrous-salen complex compound (NBEI) plus deferasirox 0.1-15 μM, FIG. 2): increased
- deferasirox concentration at which the effect on cell viability did not change further ([1]; 7.5 μM ferrous-salen complex compound (NBEI)): ≥ 1.8 µM

SMILES: CC(=O)N(O)CCCCCNC(=O)CCC(=O)N(O)CCCCCNC(=O)CCC(=O)N(O)CCCCCN [deferoxamine, (N-(5-aminopentyl)-N-hydroxy-N′-[5-(N-hydroxy-3-{[5-(N-hydroxyacetamido)pentyl]carbamoyl}propanamido)pentyl]butanediamide)]
- RFU (Relative Fluorescent Unit) value when the chelator continued to be added ([2]; chelator added to ferrous-salen complex compound-calcein AM complex, measured one hour later, λexc=485 nm, λem=520 nm): increased
- EC50 ([2]; ferrous-salen complex compound (NBEI) 10 μM): 966 nM
- EC50 ([2]; ferrous-salen complex compound (NBEI) 50 μM): 1630 nM

SMILES: [Fe+2].[O-]c1ccccc1C=NCCN=Cc1ccccc1[O-] [ferrous-salen complex compound]
- RFU (Relative Fluorescent Unit) value when added to Calcein AM ([2]; ferrous-salen complex compound added to Calcein AM, no chelator): low
- cell viability ([1]; 7.5 μM, control = 100%, FIG. 2): decreased
